Values quoted from earlier work in patent US5516921A, “Thiono-lactone inhibitors of protein trafficking and uses therefor” (Ariad Pharmaceuticals, Inc., priority 1994, dated 1996).

Assays:
[1] = tested on: β-COP
[2] = in vivo

Question: What does the source list for `C[C@H]1CCC/C=C/[C@@H]2C[C@H](O)C[C@H]2[C@H](O)/C=C/C(=O)O1` [BFA, Brefeldin A]?
Answer: time at which release of β-COP from the Golgi is complete ([1]; complete release after BFA treatment): 1 to 2 min; time at which release of β-COP from the Golgi occurs after treatment ([1]; onset of release after BFA treatment): ≤ 20 s; biological half-life [2]: short
